Reference: ChEMBL document CHEMBL1201862, “PubChem BioAssay data set” (2004)
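Compound exposure: 48 hours, 5 concentrations, 96-well plates. GI50 is the concentration that inhibits growth by half.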 Active and inactive are the calls of the source. Cut-off read from the data, not from the text of the source: active = GI50 up to about 1.1 µM and inactive = higher. Where a SMILES comes first, the peptide text is derived from it. [ ]: non-standard residue; d: D form. Phe(F5) = N[CH](Cc1c(F)c(F)c(F)c(F)c1F)C(=O)O

Key:
Assay in all cases: DTP human tumour cell line panel, 48 h
MCF7 = system: MCF7
LOX IMVI = system: LOX IMVI
A549 = system: A549
SNB-75 = system: SNB-75
CAKI-1 = system: CAKI-1
UACC-62 = system: UACC-62
OVCAR-3 = system: OVCAR-3
HCT-15 = system: HCT-15
HT-29 = system: HT-29
K562 = system: K562
COLO 205 = system: COLO 205
OVCAR-4 = system: OVCAR-4
MOLT-4 = system: MOLT-4
SK-MEL-2 = system: SK-MEL-2
SNB-19 = system: SNB-19
U-251 = system: U-251
TK-10 = system: TK-10
BT-549 = system: BT-549
HCC 2998 = system: HCC 2998
MDA-N = system: MDA-N

SMILES | GI50 (MCF7) | GI50 (LOX IMVI) | GI50 (A549) | GI50 (SNB-75) | GI50 (CAKI-1) | GI50 (UACC-62) | GI50 (OVCAR-3) | GI50 (HCT-15) [µM] | GI50 (HT-29) | GI50 (K562) | GI50 (COLO 205) | GI50 (OVCAR-4) | GI50 (MOLT-4) | GI50 (SK-MEL-2) | GI50 (SNB-19) | GI50 (U-251) | GI50 (TK-10) | GI50 (BT-549) | GI50 (HCC 2998) | GI50 (MDA-N)
O=C(c1ccc2ccccc2c1)N(Cc1cccnc1)C(=S)N(Cc1cccnc1)C(=O)c1ccc2ccccc2c1 | 32.7 µM (inactive) | 19 µM (inactive) | 39.3 µM (inactive) | 24.9 µM (inactive) | 22.2 µM (inactive) | 26 µM (inactive) | 20.5 µM (inactive) | 32.1 | 30 µM (inactive) | 41.6 µM (inactive) | 29.2 µM (inactive) | 20.7 µM (inactive) | 41.3 µM (inactive) | 25.6 µM (inactive) | 37.2 µM (inactive) | 19 µM (inactive) | 31.1 µM (inactive) | 17 µM (inactive) | 16.5 µM (inactive) | –
Cc1ccccc1N1C(N)=C(C#N)C(C#N)(C#N)C1c1ccccc1 (stereo not drawn) | 23.6 µM (inactive) | 17.7 µM (inactive) | 26.1 µM (inactive) | 26 µM (inactive) | 25.9 µM (inactive) | 17.9 µM (inactive) | 17.2 µM (inactive) | 16.6 | 18.4 µM (inactive) | – | 17.9 µM (inactive) | 19 µM (inactive) | 15.6 µM (inactive) | 25.9 µM (inactive) | 20 µM (inactive) | 16.7 µM (inactive) | 14.6 µM (inactive) | 13.6 µM (inactive) | 16.8 µM (inactive) | –
CN(C)CCn1c(CO)nc2c1c(=O)n(C)c(=O)n2C | > 100 µM (inactive) | > 100 µM (inactive) | > 100 µM (inactive) | > 100 µM (inactive) | > 100 µM (inactive) | > 100 µM (inactive) | > 100 µM (inactive) | > 100 | > 100 µM (inactive) | > 100 µM (inactive) | > 100 µM (inactive) | > 100 µM (inactive) | – | > 100 µM (inactive) | > 100 µM (inactive) | > 100 µM (inactive) | > 100 µM (inactive) | > 100 µM (inactive) | > 100 µM (inactive) | –
O=C1c2ccccc2-c2ccc(/N=N/c3c(O)ccc4ccccc34)cc21 | – | > 100 µM (inactive) | > 100 µM (inactive) | > 100 µM (inactive) | > 100 µM (inactive) | > 100 µM (inactive) | > 100 µM (inactive) | > 100 | > 100 µM (inactive) | > 100 µM (inactive) | > 100 µM (inactive) | > 100 µM (inactive) | 41.8 µM (inactive) | > 100 µM (inactive) | > 100 µM (inactive) | > 100 µM (inactive) | > 100 µM (inactive) | > 100 µM (inactive) | – | > 100 µM (inactive)
O=C1CSC2=NC3=C(CSC/C3=C\c3ccc(Cl)cc3)C(c3ccc(Cl)cc3)N12 (stereo not drawn) | 19.3 µM (inactive) | 12.3 µM (inactive) | 6.87 µM (inactive) | – | 37.2 µM (inactive) | 24.9 µM (inactive) | 15.5 µM (inactive) | 15.8 | 20.2 µM (inactive) | 21.1 µM (inactive) | 33.1 µM (inactive) | 4.46 µM (inactive) | 9.08 µM (inactive) | 25.3 µM (inactive) | 37.2 µM (inactive) | > 10 µM (inactive) | 32 µM (inactive) | – | 25.6 µM (inactive) | > 10 µM (inactive)
O=C(O)CCC(=O)c1ccc2c(c1)C(C(=O)O)CC2 (stereo not drawn) | > 100 µM (inactive) | > 100 µM (inactive) | 0.0902 µM (active) | – | – | > 100 µM (inactive) | > 100 µM (inactive) | > 100 | > 100 µM (inactive) | > 100 µM (inactive) | > 100 µM (inactive) | > 100 µM (inactive) | > 100 µM (inactive) | > 100 µM (inactive) | > 100 µM (inactive) | > 100 µM (inactive) | > 100 µM (inactive) | – | > 100 µM (inactive) | > 100 µM (inactive)
O=C(NNC(=S)Nc1ccc(Br)cc1)c1cc(-c2ccccc2)nc2ccccc12 | 18.4 µM (inactive) | – | 21 µM (inactive) | 29.2 µM (inactive) | 29.8 µM (inactive) | 20 µM (inactive) | 17 µM (inactive) | 24 | 32.1 µM (inactive) | 25.2 µM (inactive) | 22.6 µM (inactive) | 19.8 µM (inactive) | 22.1 µM (inactive) | 20 µM (inactive) | 27.2 µM (inactive) | 16.2 µM (inactive) | 14.9 µM (inactive) | 24.5 µM (inactive) | 16.8 µM (inactive) | –
COc1ccc(C(=O)Sc2c(-c3ccccc3)c(=O)n(-c3ccccc3)c(=S)n2-c2ccccc2)cc1 | > 100 µM (inactive) | 74.5 µM (inactive) | 64.1 µM (inactive) | > 100 µM (inactive) | > 100 µM (inactive) | > 100 µM (inactive) | 30.5 µM (inactive) | > 100 | > 100 µM (inactive) | 37.1 µM (inactive) | 39.7 µM (inactive) | 44.4 µM (inactive) | 21.6 µM (inactive) | – | 43.5 µM (inactive) | 47 µM (inactive) | > 100 µM (inactive) | – | > 100 µM (inactive) | > 100 µM (inactive)
O=C(Nc1ccccc1C(=O)NCc1ccccc1)/C(=C/c1ccccc1O)NC(=O)c1ccccc1 | 5.32 µM (inactive) | 98.2 µM (inactive) | > 100 µM (inactive) | 19.1 µM (inactive) | > 100 µM (inactive) | 33.7 µM (inactive) | > 100 µM (inactive) | 24.7 | > 100 µM (inactive) | > 100 µM (inactive) | > 100 µM (inactive) | – | > 100 µM (inactive) | > 100 µM (inactive) | > 100 µM (inactive) | 52.5 µM (inactive) | 74.6 µM (inactive) | – | > 100 µM (inactive) | –
CCC(C)C1=C(OC(C)=O)[N+]2([O-])Oc3ccc(-c4c(OC(C)=O)c(OC(C)=O)c(-c5ccc(OC(C)=O)cc5)c(OC(C)=O)c4OC(C)=O)cc3OC2(C(C)CC)C(=O)N1OC(C)=O (stereo not drawn) | 19.6 µM (inactive) | 17.2 µM (inactive) | 18 µM (inactive) | 14.8 µM (inactive) | 34 µM (inactive) | 9.06 µM (inactive) | 11.4 µM (inactive) | 22.5 | 19.9 µM (inactive) | 12.2 µM (inactive) | 18.8 µM (inactive) | 16.5 µM (inactive) | 11.1 µM (inactive) | 14.9 µM (inactive) | 30.1 µM (inactive) | 23.8 µM (inactive) | 37.7 µM (inactive) | – | – | 12.3 µM (inactive)
COC(=O)C(CC(C)C)NC(=O)C(Cc1c[nH]cn1)NC(=O)CNC(=O)C(NC(=O)C(C)NC(=O)C(Cc1c[nH]c2ccccc12)NC(=O)C(CCC(=O)O)NC(=O)C(N)Cc1c(F)c(F)c(F)c(F)c1F)C(C)C (stereo not drawn) (H-[Phe(F5)]EWAVGHL-OMe; configuration not given here) | > 12.5 µM (inactive) | > 12.5 µM (inactive) | > 12.5 µM (inactive) | > 100 µM (inactive) | > 12.5 µM (inactive) | > 12.5 µM (inactive) | > 12.5 µM (inactive) | > 12.5 | > 12.5 µM (inactive) | > 12.5 µM (inactive) | > 12.5 µM (inactive) | > 12.5 µM (inactive) | > 12.5 µM (inactive) | > 12.5 µM (inactive) | > 100 µM (inactive) | > 12.5 µM (inactive) | – | – | > 12.5 µM (inactive) | > 12.5 µM (inactive)
NCCCC(N)(C(=O)O)C(F)F (stereo not drawn) [EFLORNITHINE] | > 5000 µM (inactive) | 678 µM (inactive) | > 5000 µM (inactive) | 2340 µM (inactive) | 1570 µM (inactive) | > 5000 µM (inactive) | > 3940 µM (inactive) | 769 | > 2790 µM (inactive) | > 2880 µM (inactive) | > 5000 µM (inactive) | > 5000 µM (inactive) | 3030 µM (inactive) | > 5000 µM (inactive) | > 5000 µM (inactive) | > 5000 µM (inactive) | > 100 µM (inactive) | – | > 5000 µM (inactive) | –
C=C(C)CC1=C(C(=S)NCCO[Si](C)(C)C(C)(C)C)C(OCC)(OCC)C1=O | 9.66 µM (inactive) | 15.8 µM (inactive) | 15.2 µM (inactive) | 14.7 µM (inactive) | 16.3 µM (inactive) | 17.7 µM (inactive) | – | 8.93 | 9.59 µM (inactive) | – | 22.3 µM (inactive) | 12.9 µM (inactive) | > 100 µM (inactive) | 17 µM (inactive) | 17.7 µM (inactive) | 19.9 µM (inactive) | 16.1 µM (inactive) | – | – | 19.3 µM (inactive)
O=CN/C=C/c1cc(O)ccc1O [ERBSTATIN] | 11.3 µM (inactive) | 14 µM (inactive) | > 65.6 µM (inactive) | 62.4 µM (inactive) | 12.4 µM (inactive) | 13.7 µM (inactive) | 9.35 µM (inactive) | 13.3 | 22.2 µM (inactive) | 14.8 µM (inactive) | 11.9 µM (inactive) | 17.8 µM (inactive) | 22.9 µM (inactive) | 29.3 µM (inactive) | > 66.7 µM (inactive) | 42.3 µM (inactive) | 17 µM (inactive) | – | > 100 µM (inactive) | –
C=CC[C@H]1[C@@H](O[Si](C)(C)C(C)(C)C)[C@H](n2ccc(=O)[nH]c2=O)O[C@@H]1CO[Si](C)(C)C(C)(C)C | 1.77 µM (inactive) | 1.63 µM (inactive) | 1.85 µM (inactive) | 1.34 µM (inactive) | 2.23 µM (inactive) | 1.74 µM (inactive) | 1.52 µM (inactive) | 1.77 | 1.59 µM (inactive) | 2.2 µM (inactive) | 1.79 µM (inactive) | 1.82 µM (inactive) | 1.99 µM (inactive) | 2.62 µM (inactive) | 2.39 µM (inactive) | 2.09 µM (inactive) | 2.97 µM (inactive) | 3.05 µM (inactive) | 1.93 µM (inactive) | –
